Measured values as given in US10744137B1, “Liquisolid tablet containing combined dose of tadalafil and dapoxetine” (King Abdulaziz University, priority 2020, dated 2020).
Values after ≈ are worked out from the molar mass of the structure shown. Read-outs that look alike come from different tables or passages of the source.

Columns and labels:
[1] = Solubility studies of TDL and DPX in nonvolatile solvents and distilled water; type: physicochemical
Experimental: Solubility studies of TDL and DPX were determined in various nonvolatile solvents separately as described previously with full details in the literature (Al-Subaie et al., 2015)(Aldawsari et al., 2018)(El-Say et al., 2019). The solvents used in this study were Span® 80, Tween® 80, PEG 400, PEG 200, Labrasol®, Kolliphor® EL, glycerin and distilled water were used.

[2] = DPX, low and variable (El-Say et al., 2019); cited from earlier work

solubility ([1]; in distilled water, read-out: Solubility of DPX) [mg/mL]	solubility ([1]; oil or lipid, in Labrasol, read-out: Solubility of DPX) [mg/mL]	solubility ([1]; in distilled water, read-out: Solubility of TDL) [mg/mL]	solubility ([1]; organic solvent or mixture, in PEG 200, read-out: Solubility of TDL) [mg/mL]	SMILES	oral bioavailability [2]
35.6 (≈ 117 mM)	57.7 (≈ 189 mM)	–	–	CN(C)[C@@H](CCOc1cccc2ccccc12)c1ccccc1 [DPX, dapoxetine]	15-76%
–	–	0.049 (≈ 0.126 mM)	10.1 (≈ 25.9 mM)	CN1CC(=O)N2[C@H](c3ccc4c(c3)OCO4)c3[nH]c4ccccc4c3C[C@@H]2C1=O [TDL, tadalafil]	–
